Results reported in patent publication US5294611A, “Angiotensin II receptor blocking 2,3,6 substituted quinazolinones” (American Cyanamid Company, priority 1993, dated 1994).
Like-named read-outs stand apart in the source and are kept apart here.

Test system: Angiotensin II (AII) vasopressor response
Experiment: AII Challenge: antagonism of angiotensin II vasopressor response in conscious spontaneously hypertensive rats
Format: in vivo, rat (male okamoto-Aoki SHR)
Conditions: for inhibition in vivo at 10 mg/kg / inhibition in vivo at 5 mg/kg: Rattus norvegicus; for inhibition in vivo at 10 mg/kg: iv; for inhibition in vivo at 10 mg/kg / inhibition in vivo at 5 mg/kg / Average Change: SHR n=2; for inhibition in vivo at 5 mg/kg: po, read-out: Inhibition; for Change: single SHR
Outline: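 Conscious male SHR (16–20 weeks, ~330 g) cannulated under local procaine, blood pressure recorded via transducer. Angiotensin II (human) 0.05 and 0.1 ug/kg i.v. given before and after test compound dosed i.v., i.p. or orally; response measured as rise in systolic pressure (mmHg).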

[1] = 5 mg/kg P.O., AII 0.05 mcg/kg IV, 90 min post dose
[2] = 10 mg/kg I.V., AII 0.05 mcg/kg IV, 30 min post dose
[3] = 10 mg/kg I.V., AII 0.05 mcg/kg IV, 90 min post dose
[4] = 10 mg/kg I.V., AII 0.1 mcg/kg IV, 180 min post dose
[5] = 10 mg/kg I.V., AII dose not given, 120 min post dose

CCCCc1nc2ccc([C@@H]3[C@H]4C(=O)CCC[C@H]4ON3C)cc2c(=O)n1Cc1ccc(-c2ccccc2-c2nnn[nH]2)cc1 (relative stereo) [Example 49]
inhibition in vivo at 10 mg/kg (0.5 h, 10 mg/kg I.V., AII 0.05 mcg/kg IV, 30 min post dose): 100% | inhibition in vivo at 10 mg/kg (0.5 h, 10 mg/kg I.V., AII 0.1 mcg/kg IV, 30 min post dose): 88% | inhibition in vivo at 10 mg/kg (1 h, 10 mg/kg I.V., AII 0.01 mcg/kg IV (so in the source), 60 min post dose): 86% | inhibition in vivo at 10 mg/kg (1 h, 10 mg/kg I.V., AII 0.05 mcg/kg IV, 60 min post dose): 97% | inhibition in vivo at 10 mg/kg (2 h, 10 mg/kg I.V., AII 0.05 mcg/kg IV, 120 min post dose): 86% | inhibition in vivo at 10 mg/kg (2 h, 10 mg/kg I.V., AII dose not given, 120 min post dose): 81% | inhibition in vivo at 10 mg/kg (3 h, 10 mg/kg I.V., AII 0.05 mcg/kg IV, 180 min post dose): 67% | inhibition in vivo at 10 mg/kg (3 h, 10 mg/kg I.V., AII 0.1 mcg/kg IV, 180 min post dose): 63% | inhibition in vivo at 10 mg/kg ([…], 10 mg/kg I.V., AII 0.05 mcg/kg IV, 90 min post dose): 87% | inhibition in vivo at 10 mg/kg ([…], 10 mg/kg I.V., AII 0.1 mcg/kg IV, 90 min post dose): 86% | inhibition in vivo at 5 mg/kg (0.5 h, 5 mg/kg P.O., AII 0.05 mcg/kg IV, 30 min post dose): 37% | inhibition in vivo at 5 mg/kg (0.5 h, 5 mg/kg P.O., AII 0.1 mcg/kg IV, 30 min post dose): 38% | inhibition in vivo at 5 mg/kg (1 h, 5 mg/kg P.O., AII 0.05 mcg/kg IV, 60 min post dose): 59% | inhibition in vivo at 5 mg/kg (1 h, 5 mg/kg P.O., AII 0.1 mcg/kg IV, 60 min post dose): 29% | inhibition in vivo at 5 mg/kg (2 h, 5 mg/kg P.O., AII 0.05 mcg/kg IV, 120 min post dose): 41% | inhibition in vivo at 5 mg/kg (2 h, 5 mg/kg P.O., AII 0.1 mcg/kg IV, 120 min post dose): 55% | inhibition in vivo at 5 mg/kg (3 h, 5 mg/kg P.O., AII 0.05 mcg/kg IV, 180 min post dose): 63% | inhibition in vivo at 5 mg/kg (3 h, 5 mg/kg P.O., AII 0.1 mcg/kg IV, 180 min post dose): 35% | inhibition in vivo at 5 mg/kg (4 h, 5 mg/kg P.O., AII 0.05 mcg/kg IV, 240 min post dose): 34% | inhibition in vivo at 5 mg/kg (4 h, 5 mg/kg P.O., AII 0.1 mcg/kg IV, 240 min post dose): 36% | inhibition in vivo at 5 mg/kg ([…], 5 mg/kg P.O., AII 0.05 mcg/kg IV, 90 min post dose): 56% | inhibition in vivo at 5 mg/kg ([…], 5 mg/kg P.O., AII 0.1 mcg/kg IV, 90 min post dose): 59% | Average Change (5 mg/kg P.O., AII 0.05 mcg/kg IV, 30 min post dose): 21.5 mmHg | Average Change (5 mg/kg P.O., AII 0.05 mcg/kg IV, 60 min post dose): 14 mmHg | Average Change [1]: 15 mmHg | Average Change (5 mg/kg P.O., AII 0.05 mcg/kg IV, 120 min post dose): 20 mmHg | Average Change (5 mg/kg P.O., AII 0.05 mcg/kg IV, 180 min post dose): 12.5 mmHg | Average Change (5 mg/kg P.O., AII 0.05 mcg/kg IV, 240 min post dose): 22.5 mmHg | Average Change (5 mg/kg P.O., AII 0.1 mcg/kg IV, 30 min post dose): 26.5 mmHg | Average Change (5 mg/kg P.O., AII 0.1 mcg/kg IV, 60 min post dose): 30 mmHg | Average Change (5 mg/kg P.O., AII 0.1 mcg/kg IV, 90 min post dose): 17.5 mmHg | Average Change (5 mg/kg P.O., AII 0.1 mcg/kg IV, 120 min post dose): 19 mmHg | Average Change (5 mg/kg P.O., AII 0.1 mcg/kg IV, 180 min post dose): 27.5 mmHg | Average Change (5 mg/kg P.O., AII 0.1 mcg/kg IV, 240 min post dose): 27 mmHg | Average Change (10 mg/kg I.V., AII 0.01 mcg/kg IV (so in the source), 60 min post dose): 7.5 mmHg | Average Change [2]: 0 mmHg | Average Change (10 mg/kg I.V., AII 0.05 mcg/kg IV, 60 min post dose): 1 mmHg | Average Change [3]: 5 mmHg | Average Change (10 mg/kg I.V., AII 0.05 mcg/kg IV, 120 min post dose): 5.5 mmHg | Average Change (10 mg/kg I.V., AII 0.05 mcg/kg IV, 180 min post dose): 12.5 mmHg | Average Change (10 mg/kg I.V., AII 0.1 mcg/kg IV, 30 min post dose): 6.5 mmHg | Average Change (10 mg/kg I.V., AII 0.1 mcg/kg IV, 90 min post dose): 7.5 mmHg | Average Change [4]: 20 mmHg | Average Change [5]: 10 mmHg | Change [1]: 15 mmHg | Change [2]: 0 mmHg | Change [3]: 5 mmHg | Change [4]: 20 mmHg | Change [5]: 10 mmHg
